Data from US9714244B2, “Substituted pyrido[4,3-d]pyrimidines as Wee-1 inhibitors” (ALMAC DISCOVERY LIMITED, priority 2013, dated 2017).

Tests used:
Format in all cases: biochemical
Conditions in all cases: 300-350 nM
[1] = target: IKBKB (IKK beta) (Homo sapiens (Human), UniProt O14920); experiment: SelectScreen Kinase Profiling: IKBKB
Description: (§1) Table 2 below highlights the selectivity of a representative compound of the invention against a panel of 50 kinases (assessed using the Invitrogen SelectScreen® Kinase Profiling Service).

[2] = target: EGFR (ErbB1) (Homo sapiens (Human), UniProt P00533); experiment: SelectScreen Kinase Profiling: EGFR
[3] = target: PRKCB1 (PKC beta I) (Homo sapiens (Human), UniProt P05771); experiment: SelectScreen Kinase Profiling: PRKCB1
Description: as §1

[4] = target: LCK (Homo sapiens (Human), UniProt P06239); experiment: SelectScreen Kinase Profiling: LCK
Description: as §1

[5] = target: PDGFRB (PDGFR beta) (Homo sapiens (Human), UniProt P09619); experiment: SelectScreen Kinase Profiling: PDGFRB
[6] = target: MAPK14 (p38 alpha) (Homo sapiens (Human), UniProt Q16539); experiment: SelectScreen Kinase Profiling: MAPK14
Description: as §1

Chain of PRKCB1 (PKC beta I) (P05771 whole entry): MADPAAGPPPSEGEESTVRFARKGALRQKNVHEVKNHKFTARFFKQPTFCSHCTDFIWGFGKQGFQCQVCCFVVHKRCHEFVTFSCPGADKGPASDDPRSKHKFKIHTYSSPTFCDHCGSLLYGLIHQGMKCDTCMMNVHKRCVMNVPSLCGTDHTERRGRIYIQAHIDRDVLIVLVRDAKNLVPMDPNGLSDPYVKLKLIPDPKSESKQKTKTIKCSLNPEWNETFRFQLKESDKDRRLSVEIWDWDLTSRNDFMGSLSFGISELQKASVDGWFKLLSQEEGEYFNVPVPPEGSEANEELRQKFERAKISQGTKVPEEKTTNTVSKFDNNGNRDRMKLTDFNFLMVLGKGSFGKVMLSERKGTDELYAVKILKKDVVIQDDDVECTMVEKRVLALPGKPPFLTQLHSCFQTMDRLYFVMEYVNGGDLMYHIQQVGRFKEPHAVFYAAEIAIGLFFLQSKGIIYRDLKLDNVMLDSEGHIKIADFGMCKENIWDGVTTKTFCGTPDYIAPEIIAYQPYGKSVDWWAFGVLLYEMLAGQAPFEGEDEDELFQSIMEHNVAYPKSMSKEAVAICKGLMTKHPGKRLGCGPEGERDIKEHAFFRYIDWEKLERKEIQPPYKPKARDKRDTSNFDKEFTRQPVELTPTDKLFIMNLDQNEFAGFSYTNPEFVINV
Chain of EGFR (ErbB1) (P00533 25-1210): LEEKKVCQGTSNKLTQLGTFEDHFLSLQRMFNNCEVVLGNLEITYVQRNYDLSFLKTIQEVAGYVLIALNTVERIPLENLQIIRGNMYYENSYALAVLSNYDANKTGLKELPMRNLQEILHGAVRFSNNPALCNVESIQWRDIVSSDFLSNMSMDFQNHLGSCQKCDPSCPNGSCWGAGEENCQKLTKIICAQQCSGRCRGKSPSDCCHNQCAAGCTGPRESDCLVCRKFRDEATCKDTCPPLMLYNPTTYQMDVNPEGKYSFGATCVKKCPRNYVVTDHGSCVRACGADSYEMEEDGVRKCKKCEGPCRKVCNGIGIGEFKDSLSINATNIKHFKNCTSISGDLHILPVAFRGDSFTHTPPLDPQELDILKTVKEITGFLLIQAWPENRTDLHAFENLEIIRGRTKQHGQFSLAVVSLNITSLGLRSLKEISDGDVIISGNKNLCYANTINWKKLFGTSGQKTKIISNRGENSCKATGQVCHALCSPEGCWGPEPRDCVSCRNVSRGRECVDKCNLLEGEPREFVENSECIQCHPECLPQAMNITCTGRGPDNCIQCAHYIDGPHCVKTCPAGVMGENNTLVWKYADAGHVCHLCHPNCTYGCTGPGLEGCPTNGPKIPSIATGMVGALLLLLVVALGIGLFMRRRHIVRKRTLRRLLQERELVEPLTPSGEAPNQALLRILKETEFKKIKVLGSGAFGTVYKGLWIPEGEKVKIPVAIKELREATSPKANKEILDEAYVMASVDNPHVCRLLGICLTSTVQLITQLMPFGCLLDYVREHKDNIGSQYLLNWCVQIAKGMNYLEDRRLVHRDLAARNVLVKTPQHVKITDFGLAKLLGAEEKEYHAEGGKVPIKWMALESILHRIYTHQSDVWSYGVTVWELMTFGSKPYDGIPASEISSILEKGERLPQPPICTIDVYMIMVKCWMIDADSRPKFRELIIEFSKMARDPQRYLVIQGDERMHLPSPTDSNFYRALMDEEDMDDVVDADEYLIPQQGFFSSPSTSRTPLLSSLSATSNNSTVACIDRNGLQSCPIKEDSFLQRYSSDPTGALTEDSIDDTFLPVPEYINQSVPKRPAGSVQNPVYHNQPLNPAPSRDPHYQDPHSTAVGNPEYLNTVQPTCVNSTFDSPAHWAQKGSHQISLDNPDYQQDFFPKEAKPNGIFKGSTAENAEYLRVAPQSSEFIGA
Chain of LCK (P06239 whole entry): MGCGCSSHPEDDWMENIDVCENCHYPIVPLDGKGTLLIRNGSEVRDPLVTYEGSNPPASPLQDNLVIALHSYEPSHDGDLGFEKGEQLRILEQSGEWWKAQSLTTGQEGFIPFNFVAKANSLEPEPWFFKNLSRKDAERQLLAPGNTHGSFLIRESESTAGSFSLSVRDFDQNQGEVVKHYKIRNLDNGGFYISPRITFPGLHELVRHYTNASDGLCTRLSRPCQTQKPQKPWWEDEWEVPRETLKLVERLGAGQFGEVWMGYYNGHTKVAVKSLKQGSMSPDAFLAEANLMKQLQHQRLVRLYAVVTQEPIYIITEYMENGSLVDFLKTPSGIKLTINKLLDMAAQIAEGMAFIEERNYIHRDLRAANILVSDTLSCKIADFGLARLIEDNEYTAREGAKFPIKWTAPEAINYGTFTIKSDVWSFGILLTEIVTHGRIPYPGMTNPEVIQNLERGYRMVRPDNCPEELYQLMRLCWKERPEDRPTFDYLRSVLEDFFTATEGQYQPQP
Chain of IKBKB (IKK beta) (O14920 whole entry): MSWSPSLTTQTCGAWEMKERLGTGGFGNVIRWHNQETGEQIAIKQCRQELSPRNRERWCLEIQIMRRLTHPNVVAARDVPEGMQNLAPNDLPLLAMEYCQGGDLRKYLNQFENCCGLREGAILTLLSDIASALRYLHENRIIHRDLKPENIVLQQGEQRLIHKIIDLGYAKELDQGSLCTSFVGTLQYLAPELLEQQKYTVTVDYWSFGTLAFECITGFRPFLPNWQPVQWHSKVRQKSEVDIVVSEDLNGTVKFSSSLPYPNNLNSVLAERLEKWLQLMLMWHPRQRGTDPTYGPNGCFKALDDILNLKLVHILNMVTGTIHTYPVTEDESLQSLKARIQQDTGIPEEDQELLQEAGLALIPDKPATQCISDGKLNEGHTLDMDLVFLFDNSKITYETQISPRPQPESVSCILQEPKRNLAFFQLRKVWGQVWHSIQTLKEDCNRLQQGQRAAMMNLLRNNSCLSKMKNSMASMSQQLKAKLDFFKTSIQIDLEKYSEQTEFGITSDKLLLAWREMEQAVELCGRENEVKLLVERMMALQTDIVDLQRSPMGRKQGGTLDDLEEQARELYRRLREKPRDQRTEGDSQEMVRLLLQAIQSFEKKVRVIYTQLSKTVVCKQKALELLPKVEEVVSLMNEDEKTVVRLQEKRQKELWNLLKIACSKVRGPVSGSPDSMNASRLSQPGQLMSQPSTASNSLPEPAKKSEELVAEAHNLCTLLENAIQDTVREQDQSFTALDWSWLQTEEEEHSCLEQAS
Chain of PDGFRB (PDGFR beta) (P09619 33-1106): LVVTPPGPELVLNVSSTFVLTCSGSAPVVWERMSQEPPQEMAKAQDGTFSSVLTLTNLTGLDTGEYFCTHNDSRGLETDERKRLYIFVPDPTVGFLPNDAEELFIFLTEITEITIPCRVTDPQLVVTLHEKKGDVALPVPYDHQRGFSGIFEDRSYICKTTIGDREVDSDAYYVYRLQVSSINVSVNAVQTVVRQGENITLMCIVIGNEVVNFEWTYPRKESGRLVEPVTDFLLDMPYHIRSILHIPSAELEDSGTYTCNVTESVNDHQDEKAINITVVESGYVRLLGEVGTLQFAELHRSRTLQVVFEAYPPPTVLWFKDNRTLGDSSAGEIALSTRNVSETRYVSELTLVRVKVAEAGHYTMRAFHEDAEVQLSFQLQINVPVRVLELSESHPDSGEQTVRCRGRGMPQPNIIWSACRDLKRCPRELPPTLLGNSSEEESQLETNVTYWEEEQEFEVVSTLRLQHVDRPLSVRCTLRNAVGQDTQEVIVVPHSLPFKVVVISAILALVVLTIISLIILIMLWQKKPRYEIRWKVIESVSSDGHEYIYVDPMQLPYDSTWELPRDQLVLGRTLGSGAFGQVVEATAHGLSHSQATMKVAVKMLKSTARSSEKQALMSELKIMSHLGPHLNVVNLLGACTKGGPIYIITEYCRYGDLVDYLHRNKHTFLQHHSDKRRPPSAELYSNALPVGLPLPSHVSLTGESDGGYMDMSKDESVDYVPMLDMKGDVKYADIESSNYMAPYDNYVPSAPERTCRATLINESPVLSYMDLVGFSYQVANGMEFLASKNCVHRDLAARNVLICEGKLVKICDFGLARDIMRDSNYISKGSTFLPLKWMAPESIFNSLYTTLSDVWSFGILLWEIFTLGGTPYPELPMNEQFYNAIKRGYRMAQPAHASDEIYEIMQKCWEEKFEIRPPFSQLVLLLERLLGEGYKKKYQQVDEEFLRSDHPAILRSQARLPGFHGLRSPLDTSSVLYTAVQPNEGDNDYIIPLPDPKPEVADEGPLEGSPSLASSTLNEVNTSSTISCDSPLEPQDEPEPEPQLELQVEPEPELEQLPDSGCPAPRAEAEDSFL
Chain of MAPK14 (p38 alpha) (Q16539 whole entry): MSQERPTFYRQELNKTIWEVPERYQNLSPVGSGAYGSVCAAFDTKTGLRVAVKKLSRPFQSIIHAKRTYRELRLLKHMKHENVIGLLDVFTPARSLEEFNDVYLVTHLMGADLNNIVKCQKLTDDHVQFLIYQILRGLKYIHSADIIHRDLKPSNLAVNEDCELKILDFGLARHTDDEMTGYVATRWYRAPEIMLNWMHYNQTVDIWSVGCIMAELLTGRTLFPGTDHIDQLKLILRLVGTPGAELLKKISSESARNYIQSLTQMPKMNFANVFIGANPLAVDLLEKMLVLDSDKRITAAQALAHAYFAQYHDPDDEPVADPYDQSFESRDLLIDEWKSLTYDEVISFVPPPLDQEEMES

O=c1c2cnc(Nc3ccc(N4CCNCC4)cc3)nc2ccn1-c1c(Cl)cccc1Cl [Example 1, 6-(2,6-Dichlorophenyl)-2-((4-(piperazin-1-yl)phenyl)amino)pyrido[4,3-d]pyrimidin-5(6H)-one]
− (Inhibition <75% @ 300-350 nM): Inhibition IKBKB (IKK beta) [1] | Inhibition EGFR (ErbB1) [2] | Inhibition PRKCB1 (PKC beta I) [3] | Inhibition LCK [4] | Inhibition PDGFRB (PDGFR beta) [5] | Inhibition MAPK14 (p38 alpha) [6]
